Data taken from patent publication US10947271B2, “Antibacterial agents” (THE UNIVERSITY OF QUEENSLAND, priority 2014, dated 2021).

Experiments:
Format in all cases: cell-based
Conditions in all cases: 24 h incubation, visual reading
[1] = test system: Staphylococcus aureus MRSA ATCC 43300; experiment: MIC assay, S. aureus MRSA ATCC 43300
Procedure, shortened: (§1)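 Overnight MHB cultures at 37° C were diluted 40-fold and grown 2-3 hrs to mid-log, then added at 5×10e5 CFU/mL to twofold compound dilutions (8 to 0.003 μg/ml). Plates were incubated 24 h at 37° C and MIC scored by eye.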

[2] = test system: Enterococcus faecium MDR Van A ATCC 51559; experiment: MIC assay, E. faecium MDR Van A ATCC 51559
Procedure, shortened: as §1

[3] = test system: Streptococcus pneumoniae MDR ATCC 700677; experiment: MIC assay, S. pneumoniae MDR ATCC 700677
Procedure, shortened: as §1

Row | Compound | Minimum Inhibitory Concentration (MIC) Staph. aureus ATCC43300 [1] | Minimum Inhibitory Concentration (MIC) E. faecium ATCC51559 [2] | Minimum Inhibitory Concentration (MIC) S. pneumoniae ATCC 700677 [3]
1 | CCCCCCCCCC(=O)N[C@@H](CCCCN1CCCCC1)C(=O)N[C@@H](CCCCNC(=O)[C@H]1NC(=O)[C@H]2NC(=O)[C@H](NC(=O)[C@@H]3NC(=O)[C@H](CC(N)=O)NC(=O)[C@H](NC(=O)[C@@H](CC(C)C)NC)[C@H](O)c4ccc(c(Cl)c4)Oc4cc3cc(c4O[C@@H]3O[C@H](CO)[C@@H](O)[C@H](O)[C@H]3O[C@H]3C[C@](C)(N)[C@H](O)[C@H](C)O3)Oc3ccc(cc3Cl)[C@H]2O)c2ccc(O)c(c2)-c2c(O)cc(O)cc21)C(=O)O [MCC_007328] | xxx (xxx = 0.1-<1) | x (x = >4) | xxx (xxx = 0.1-<1)
2 | CCCCCCCCCCC(=O)NCCCC[C@H](NC(=O)CCCCCCCCCC)C(=O)N[C@@H](CCCCN)C(=O)N[C@@H](CCCCN)C(=O)N[C@@H](CCCCNC(=O)[C@H]1NC(=O)[C@H]2NC(=O)[C@H](NC(=O)[C@@H]3NC(=O)[C@H](CC(N)=O)NC(=O)[C@H](NC(=O)[C@@H](CC(C)C)NC)[C@H](O)c4ccc(c(Cl)c4)Oc4cc3cc(c4O[C@@H]3O[C@H](CO)[C@@H](O)[C@H](O)[C@H]3O[C@H]3C[C@](C)(N)[C@H](O)[C@H](C)O3)Oc3ccc(cc3Cl)[C@H]2O)c2ccc(O)c(c2)-c2c(O)cc(O)cc21)C(=O)O [MCC_000231] | xx (xx = 1-4) | x (x = >4) | xx (xx = 1-4)
3 | CCCCCCCCCC(=O)N[C@@H](CCCCN1CCOCC1)C(=O)N[C@@H](CCCCNC(=O)[C@H]1NC(=O)[C@H]2NC(=O)[C@H](NC(=O)[C@@H]3NC(=O)[C@H](CC(N)=O)NC(=O)[C@H](NC(=O)[C@@H](CC(C)C)NC)[C@H](O)c4ccc(c(Cl)c4)Oc4cc3cc(c4O[C@@H]3O[C@H](CO)[C@@H](O)[C@H](O)[C@H]3O[C@H]3C[C@](C)(N)[C@H](O)[C@H](C)O3)Oc3ccc(cc3Cl)[C@H]2O)c2ccc(O)c(c2)-c2c(O)cc(O)cc21)C(=O)O [MCC_007379] | xx (xx = 1-4) | x (x = >4) | xx (xx = 1-4)
4 | CCCCCCCCCN1CCC(C(=O)N[C@@H](CCCCN)C(=O)N[C@@H](CCCCNC(=O)[C@H]2NC(=O)[C@H]3NC(=O)[C@H](NC(=O)[C@@H]4NC(=O)[C@H](CC(N)=O)NC(=O)[C@H](NC(=O)[C@@H](CC(C)C)NC)[C@H](O)c5ccc(c(Cl)c5)Oc5cc4cc(c5O[C@@H]4O[C@H](CO)[C@@H](O)[C@H](O)[C@H]4O[C@H]4C[C@](C)(N)[C@H](O)[C@H](C)O4)Oc4ccc(cc4Cl)[C@H]3O)c3ccc(O)c(c3)-c3c(O)cc(O)cc32)C(N)=O)CC1 [MCC_004825] | xxxx (xxxx = 0.01-<0.1) | xxx (xxx = 0.1-<1) | xxx (xxx = 0.1-<1)
5 | CCCCCCCCCCCCCC(=O)N[C@@H](CCCCN)C(=O)N[C@@H](CCCCN)C(=O)N[C@@H](CCCCN)C(=O)N[C@@H](CCCCNC(=O)[C@H]1NC(=O)[C@H]2NC(=O)[C@H](NC(=O)[C@@H]3NC(=O)[C@H](CC(N)=O)NC(=O)[C@H](NC(=O)[C@@H](CC(C)C)NC)[C@H](O)c4ccc(c(Cl)c4)Oc4cc3cc(c4O[C@@H]3O[C@H](CO)[C@@H](O)[C@H](O)[C@H]3O[C@H]3C[C@](C)(N)[C@H](O)[C@H](C)O3)Oc3ccc(cc3Cl)[C@H]2O)c2ccc(O)c(c2)-c2c(O)cc(O)cc21)C(=O)NC [MCC_000343] | xxxxx (xxxxx = <0.01) | xxxx (xxxx = 0.01-<0.1) | xxxxx (xxxxx = <0.01)
6 | CCCCCCCCCCCCCC(=O)N[C@@H](CCCCN)C(=O)N[C@@H](CCCCN)C(=O)NCC(=O)NCCCNC(=O)[C@H]1NC(=O)[C@H]2NC(=O)[C@H](NC(=O)[C@@H]3NC(=O)[C@H](CC(N)=O)NC(=O)[C@H](NC(=O)[C@@H](CC(C)C)NC)[C@H](O)c4ccc(c(Cl)c4)Oc4cc3cc(c4O[C@@H]3O[C@H](CO)[C@@H](O)[C@H](O)[C@H]3O[C@H]3C[C@](C)(N)[C@H](O)[C@H](C)O3)Oc3ccc(cc3Cl)[C@H]2O)c2ccc(O)c(c2)-c2c(O)cc(O)cc21 [MCC_000784] | xxxxx (xxxxx = <0.01) | xxxx (xxxx = 0.01-<0.1) | xxxxx (xxxxx = <0.01)
7 | CCCCCCCCCN1CCC(C(=O)N[C@@H](CCCCN)C(=O)N[C@@H](CCCCN)C(=O)NCCCNC(=O)[C@H]2NC(=O)[C@H]3NC(=O)[C@H](NC(=O)[C@@H]4NC(=O)[C@H](CC(N)=O)NC(=O)[C@H](NC(=O)[C@@H](CC(C)C)NC)[C@H](O)c5ccc(c(Cl)c5)Oc5cc4cc(c5O[C@@H]4O[C@H](CO)[C@@H](O)[C@H](O)[C@H]4O[C@H]4C[C@](C)(N)[C@H](O)[C@H](C)O4)Oc4ccc(cc4Cl)[C@H]3O)c3ccc(O)c(c3)-c3c(O)cc(O)cc32)CC1 [MCC_000937] | xxxx (xxxx = 0.01-<0.1) | xx (xx = 1-4) | xxxx (xxxx = 0.01-<0.1)

Other lines, results leading:

Row | Minimum Inhibitory Concentration (MIC) Staph. aureus ATCC43300 [1] | Minimum Inhibitory Concentration (MIC) E. faecium ATCC51559 [2] | Minimum Inhibitory Concentration (MIC) S. pneumoniae ATCC 700677 [3] | Compound
8 | xxx (xxx = 0.1-<1) | x (x = >4) | xxx (xxx = 0.1-<1) | CNC(=O)C(CCCCNC(=O)C1NC(=O)C2NC(=O)C(NC(=O)C3NC(=O)C(CC(N)=O)NC(=O)C(NC(=O)C(CC(C)C)NC)C(O)c4ccc(c(Cl)c4)Oc4cc3cc(c4OC3OC(CO)C(O)C(O)C3OC3CC(C)(N)C(O)C(C)O3)Oc3ccc(cc3Cl)C2O)c2ccc(O)c(c2)-c2c(O)cc(O)cc21)NC(=O)C(CCCCN)NC(=O)C(CCCCN)NC(=O)CCCCCc1ccccc1 (stereo not drawn) [MCC_000507]
9 | xxx (xxx = 0.1-<1) | x (x = >4) | xxx (xxx = 0.1-<1) | CCCCCCC[C@H](O)CC(=O)N[C@@H](CCCCN)C(=O)N[C@@H](CCCCN)C(=O)N[C@@H](CCCCNC(=O)[C@H]1NC(=O)[C@H]2NC(=O)[C@H](NC(=O)[C@@H]3NC(=O)[C@H](CC(N)=O)NC(=O)[C@H](NC(=O)[C@@H](CC(C)C)NC)[C@H](O)c4ccc(c(Cl)c4)Oc4cc3cc(c4O[C@@H]3O[C@H](CO)[C@@H](O)[C@H](O)[C@H]3O[C@H]3C[C@](C)(N)[C@H](O)[C@H](C)O3)Oc3ccc(cc3Cl)[C@H]2O)c2ccc(O)c(c2)-c2c(O)cc(O)cc21)C(=O)O [MCC_005506]
10 | xx (xx = 1-4) | x (x = >4) | xxx (xxx = 0.1-<1) | CCCCCCCC(=O)NC(CCCCN)C(=O)NC(CCCCN)C(=O)NC(CCCCNC(=O)C1NC(=O)C2NC(=O)C(NC(=O)C3NC(=O)C(CC(N)=O)NC(=O)C(NC(=O)C(CC(C)C)NC)C(O)c4ccc(c(Cl)c4)Oc4cc3cc(c4OC3OC(CO)C(O)C(O)C3OC3CC(C)(N)C(O)C(C)O3)Oc3ccc(cc3Cl)C2O)c2ccc(O)c(c2)-c2c(O)cc(O)cc21)C(=O)NC (stereo not drawn) [MCC_000489]
11 | xxxx (xxxx = 0.01-<0.1) | xx (xx = 1-4) | xxxxx (xxxxx = <0.01) | CNC(=O)C(CCCCNC(=O)C1NC(=O)C2NC(=O)C(NC(=O)C3NC(=O)C(CC(N)=O)NC(=O)C(NC(=O)C(CC(C)C)NC)C(O)c4ccc(c(Cl)c4)Oc4cc3cc(c4OC3OC(CO)C(O)C(O)C3OC3CC(C)(N)C(O)C(C)O3)Oc3ccc(cc3Cl)C2O)c2ccc(O)c(c2)-c2c(O)cc(O)cc21)NC(=O)C(CCCCN)NC(=O)C(CCCCN)NC(=O)CCCCCCCCc1ccccc1 (stereo not drawn) [MCC_000509]
12 | xxxx (xxxx = 0.01-<0.1) | x (x = >4) | xxxxx (xxxxx = <0.01) | CCCCCOc1ccc(C(=O)NC(CCCCN)C(=O)NC(CCCCN)C(=O)NC(CCCCNC(=O)C2NC(=O)C3NC(=O)C(NC(=O)C4NC(=O)C(CC(N)=O)NC(=O)C(NC(=O)C(CC(C)C)NC)C(O)c5ccc(c(Cl)c5)Oc5cc4cc(c5OC4OC(CO)C(O)C(O)C4OC4CC(C)(N)C(O)C(C)O4)Oc4ccc(cc4Cl)C3O)c3ccc(O)c(c3)-c3c(O)cc(O)cc32)C(=O)NC)cc1 (stereo not drawn) [MCC_000501]
13 | xxxxx (xxxxx = <0.01) | x (x = >4) | xxxxxx | CCCCCCCCCC(=O)NC(CCCCN)C(=O)NC(CCCCN)C(=O)NC(CCCCNC(=O)C1NC(=O)C2NC(=O)C(NC(=O)C3NC(=O)C(CC(N)=O)NC(=O)C(NC(=O)C(CC(C)C)NC)C(O)c4ccc(c(Cl)c4)Oc4cc3cc(c4OC3OC(CO)C(O)C(O)C3OC3CC(C)(N)C(O)C(C)O3)Oc3ccc(cc3Cl)C2O)c2ccc(O)c(c2)-c2c(O)cc(O)cc21)C(=O)NC (stereo not drawn) [MCC_000492]
14 | xxxx (xxxx = 0.01-<0.1) | xx (xx = 1-4) | xxxx (xxxx = 0.01-<0.1) | CCCCCCc1ccc(C(=O)NC(CCCCN)C(=O)NC(CCCCN)C(=O)NC(CCCCNC(=O)C2NC(=O)C3NC(=O)C(NC(=O)C4NC(=O)C(CC(N)=O)NC(=O)C(NC(=O)C(CC(C)C)NC)C(O)c5ccc(c(Cl)c5)Oc5cc4cc(c5OC4OC(CO)C(O)C(O)C4OC4CC(C)(N)C(O)C(C)O4)Oc4ccc(cc4Cl)C3O)c3ccc(O)c(c3)-c3c(O)cc(O)cc32)C(=O)NC)cc1 (stereo not drawn) [MCC_000499]
15 | xxxx (xxxx = 0.01-<0.1) | xx (xx = 1-4) | xxxx (xxxx = 0.01-<0.1) | CCCCCCCCC(=O)N[C@@H](CCCCN)C(=O)N[C@@H](CCCCN)C(=O)NCCCNC(=O)[C@H]1NC(=O)[C@H]2NC(=O)[C@H](NC(=O)[C@@H]3NC(=O)[C@H](CC(N)=O)NC(=O)[C@H](NC(=O)[C@@H](CC(C)C)NC)[C@H](O)c4ccc(c(Cl)c4)Oc4cc3cc(c4O[C@@H]3O[C@H](CO)[C@@H](O)[C@H](O)[C@H]3O[C@H]3C[C@](C)(N)[C@H](O)[C@H](C)O3)Oc3ccc(cc3Cl)[C@H]2O)c2ccc(O)c(c2)-c2c(O)cc(O)cc21 [MCC_005199]
